Laboratory results as given in patent publication US20210179598A1, “SELECTIVE JAK2 INHIBITOR AND APPLICATION THEREOF” (EAST CHINA UNIVERSITY OF SCIENCE AND TECHNOLOGY, priority 2018, published 2021).

What was measured:
[1] = test system: H3122 cells; assay: CCK-8 cell proliferation detection, H3122 cells; type: cell-based
Source text: (§1) WST-8 (chemical name: 2-(2-methoxy-4-nitrophenyl)-3-(4-nitrophenyl)-5-(2,4-disulfo benzene)-2H-tetrazolium monosodium), which is reduced to a highly water-soluble yellow formazan product (Formazan dye) by the dehydrogenase in cells under the action of the electron carrier dimethyl 1-methoxy-5-methylphenazinium sulfate (1-Methoxy PMS). The amount of the produced formazan is proportional to the number of living cells. Therefore, the survival rate of cells can be calculated indirectly by measuring the absorbance at 450 nm. The half inhibition rate of the compound on the proliferation of H3122, SET2, HEL cells can be determined by the CCK-8 method.
(§2) RPIM medium containing 10% FBS was used to culture cells (100 μL per well), and 3500 cells were inoculated into a 96-well plate, and placed in a 37° C., 5% CO2 incubator for 24 h, until 50%-70% of the cell confluence was achieved. Drugs with different concentration gradients were added respectively, and incubated for another 72 hrs. […] And finally the absorption value of each well was measured at 450 nm.
(§3) NOTE: HEL, SET-2, H3122 cells were purchased from ATCC (American type culture collection), Z′-LYTETM kinase assay platform was purchased from Invitrogen, HTRF KinEASETM-TK was purchased from Cisbio, and Cell Counting Kit-8 was purchased from Beyotime.

[2] = target: ALK (Homo sapiens, UniProt Q9UM73); assay: ALK kinase IC50 test (HTRF); type: biochemical
Source text: According to HTRF method, the peptide substrate was labeled with a biotin, which can specifically bind to XL665-labeled streptavidin. When the kinase adds a phosphate group to the polypeptide substrate in the first step, its Eu-labeled specific phosphorylation antibody can recognize and bind to it. In this way, in the second step of detection, a complex of XL665-labeled streptavidin, phosphorylated peptide substrate and Eu-labeled phosphorylation antibody can be formed. Since the distance between XL665 and Eu is short, FRET can be formed. On the other hand, Eu has a relatively long fluorescence half-life and can be applied to time-resolved fluorescence detection.
10 μL of reaction system, 4 μL test compound, 2 μL kinase, 2 μL biotin-labeled substrate and 2 μL ATP, was added into a 384-well plate, shaken for 30 s, and incubated at room temperature for 1 hour. 5 μL of Eu-labeled phosphorylation site-specific antibody and 5 μL of XL665-labeled streptavidin were added. The reaction system was shaken for 30 s, and incubated at room temperature for 1 hour. A microplate reader was used to detect the fluorescence signal. The inhibition rates of the compounds under 8 concentration gradients were determined, and the IC50 value of each compound was calculated by fitting curve with Origin 8.0. […] Each experiment was performed in triplicate.
as §3

[3] = test system: HEL (JAK2 V617F) cells; assay: CCK-8 cell proliferation detection, HEL cells; type: cell-based; settings: Homo sapiens, Table 2, CCK-8, 72 hrs
Source text: as §1, §2, §3

[4] = test system: SET 2 (JAK2 V617F) cells; assay: CCK-8 cell proliferation detection, SET2 cells; type: cell-based; settings: Homo sapiens, Table 2, CCK-8, 72 hrs
Source text: as §1, §2, §3

[5] = target: JAK2 (Homo sapiens, UniProt O60674); assay: JAK2 kinase activity test at molecular level (Z'-LYTE FRET); type: biochemical; settings: Table 2; read-out: JAK2 IC50
Procedure: JAK2 can catalyze the transfer of a phosphate group of adenosine triphosphate (ATP) to a polypeptide substrate, and the polypeptide substrate is labeled with two fluorescent groups, coumarin and fluorescein. […] Therefore, the inhibition rates of different compounds can be calculated by measuring the ratio of enzyme-catalyzed substrate phosphorylation percentages.
10 μL reaction system, 2.5 μL test compound, 5 μL kinase/peptide substrate mixture and 2.5 μL ATP solution were added into a 384-well plate, shaken for 30 s, and incubated at room temperature for 1 hour. 5 μL of proteolytic enzyme and 15 μL of the reaction system were added and shaken for 30 s and incubated at room temperature for 1 h. 5 μL of stop reagent was added, and the reaction system with a total volume of 20 μL was shaken for 30 seconds. A microplate reader was used to detect the fluorescence signal. […] The inhibition rates of the compound at 7 concentration gradients were determined, and the IC50 value for each compound was calculated by fitting curve with Origin 8.0.
as §3

[6] = Table 4, configurations of MXY-193
[7] = Homo sapiens, NCI-H3122, Table 2, CCK-8, 72 hrs

Chain of ALK (Q9UM73 19-1620, species assumed): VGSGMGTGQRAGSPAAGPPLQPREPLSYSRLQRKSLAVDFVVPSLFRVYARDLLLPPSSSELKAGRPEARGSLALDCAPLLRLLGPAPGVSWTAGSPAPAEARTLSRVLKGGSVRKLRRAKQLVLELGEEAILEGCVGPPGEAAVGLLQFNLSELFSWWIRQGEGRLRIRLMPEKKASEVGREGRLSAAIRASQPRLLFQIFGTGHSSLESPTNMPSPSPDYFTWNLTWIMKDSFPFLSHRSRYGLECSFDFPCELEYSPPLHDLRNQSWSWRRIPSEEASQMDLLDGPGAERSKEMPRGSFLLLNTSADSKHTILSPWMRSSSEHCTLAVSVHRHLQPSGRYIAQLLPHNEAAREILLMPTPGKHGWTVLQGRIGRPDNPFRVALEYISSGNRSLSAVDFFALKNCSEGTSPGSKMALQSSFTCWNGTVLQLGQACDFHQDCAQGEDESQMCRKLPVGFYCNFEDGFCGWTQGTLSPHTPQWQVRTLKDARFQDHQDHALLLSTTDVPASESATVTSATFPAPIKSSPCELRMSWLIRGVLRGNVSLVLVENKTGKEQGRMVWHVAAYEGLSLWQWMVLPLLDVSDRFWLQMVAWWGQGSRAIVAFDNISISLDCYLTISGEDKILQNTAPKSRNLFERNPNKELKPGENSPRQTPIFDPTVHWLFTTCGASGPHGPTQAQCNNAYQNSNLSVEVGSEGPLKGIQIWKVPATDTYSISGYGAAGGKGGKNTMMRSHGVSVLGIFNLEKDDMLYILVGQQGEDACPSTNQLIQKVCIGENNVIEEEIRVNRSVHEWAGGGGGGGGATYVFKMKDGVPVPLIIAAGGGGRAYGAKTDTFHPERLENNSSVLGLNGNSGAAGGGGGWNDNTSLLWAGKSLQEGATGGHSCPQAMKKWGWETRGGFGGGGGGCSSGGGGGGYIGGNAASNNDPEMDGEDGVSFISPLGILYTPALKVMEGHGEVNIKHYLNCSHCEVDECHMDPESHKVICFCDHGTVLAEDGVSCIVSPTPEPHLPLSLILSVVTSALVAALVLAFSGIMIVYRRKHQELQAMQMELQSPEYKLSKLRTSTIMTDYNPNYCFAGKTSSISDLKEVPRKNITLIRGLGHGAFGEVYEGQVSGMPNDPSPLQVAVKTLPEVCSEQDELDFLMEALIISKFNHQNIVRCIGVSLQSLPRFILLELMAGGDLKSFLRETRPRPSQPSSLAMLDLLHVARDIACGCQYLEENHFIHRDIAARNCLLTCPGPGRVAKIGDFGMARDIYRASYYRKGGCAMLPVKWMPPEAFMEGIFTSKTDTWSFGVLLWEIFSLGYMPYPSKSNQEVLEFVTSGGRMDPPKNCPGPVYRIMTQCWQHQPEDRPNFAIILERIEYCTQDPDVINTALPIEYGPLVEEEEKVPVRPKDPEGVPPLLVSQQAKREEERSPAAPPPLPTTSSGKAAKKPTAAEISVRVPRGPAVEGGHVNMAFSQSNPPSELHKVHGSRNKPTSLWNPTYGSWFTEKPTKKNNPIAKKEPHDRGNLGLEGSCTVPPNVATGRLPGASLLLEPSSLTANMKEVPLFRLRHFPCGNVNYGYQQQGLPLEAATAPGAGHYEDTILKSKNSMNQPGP
Chain of JAK2 (O60674 whole entry): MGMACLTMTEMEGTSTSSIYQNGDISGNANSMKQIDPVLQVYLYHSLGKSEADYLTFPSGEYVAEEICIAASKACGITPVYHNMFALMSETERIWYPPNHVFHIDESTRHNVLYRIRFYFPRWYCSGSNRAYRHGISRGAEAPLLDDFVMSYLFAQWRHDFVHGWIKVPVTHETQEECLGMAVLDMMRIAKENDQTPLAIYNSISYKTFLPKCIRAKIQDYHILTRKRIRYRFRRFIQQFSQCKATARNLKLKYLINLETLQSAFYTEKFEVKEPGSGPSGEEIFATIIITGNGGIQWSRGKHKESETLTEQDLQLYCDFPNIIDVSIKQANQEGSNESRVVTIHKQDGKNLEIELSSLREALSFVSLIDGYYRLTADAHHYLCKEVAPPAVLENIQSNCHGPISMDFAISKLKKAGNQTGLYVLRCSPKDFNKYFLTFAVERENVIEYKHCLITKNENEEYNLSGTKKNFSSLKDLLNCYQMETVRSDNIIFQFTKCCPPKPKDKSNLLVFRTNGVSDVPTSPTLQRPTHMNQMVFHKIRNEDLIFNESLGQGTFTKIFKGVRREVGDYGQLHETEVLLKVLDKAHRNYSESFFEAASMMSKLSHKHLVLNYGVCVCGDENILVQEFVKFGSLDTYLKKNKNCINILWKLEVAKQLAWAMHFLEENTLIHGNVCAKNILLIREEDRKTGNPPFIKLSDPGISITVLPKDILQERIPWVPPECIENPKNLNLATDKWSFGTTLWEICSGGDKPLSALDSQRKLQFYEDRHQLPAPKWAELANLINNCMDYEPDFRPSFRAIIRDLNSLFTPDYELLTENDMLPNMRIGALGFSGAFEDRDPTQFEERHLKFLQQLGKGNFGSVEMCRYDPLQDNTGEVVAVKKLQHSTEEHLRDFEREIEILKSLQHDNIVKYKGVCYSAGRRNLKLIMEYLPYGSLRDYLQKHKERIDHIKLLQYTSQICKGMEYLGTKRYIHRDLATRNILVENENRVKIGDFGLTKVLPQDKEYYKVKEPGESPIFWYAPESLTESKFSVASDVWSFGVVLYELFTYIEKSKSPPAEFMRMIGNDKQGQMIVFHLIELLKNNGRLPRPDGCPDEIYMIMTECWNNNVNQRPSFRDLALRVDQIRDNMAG

| SMILES | IC50 ([1]; Homo sapiens, NCI-H3122, Table 4, configurations of MXY-193) [µM] | IC50 [2, 6] [µM] | IC50 [1, 6] [µM] | IC50 ([3]; 72 h) [µM] | IC50 ([4]; SET-2, 72 h) [µM] | IC50 ([1]; Homo sapiens, NCI-H3122, 72 h, Table 2, CCK-8, 72 hrs) [µM] | IC50 [5] [µM] | IC50 [3] [µM] | IC50 ([4]; SET-2) [µM] | IC50 [1, 7] [µM] | IC50 ([2]; Table 2) [µM] |
| --- | --- | --- | --- | --- | --- | --- | --- | --- | --- | --- | --- |
| CC(Oc1cc(-c2cnn(C3CCOCC3)c2)cnc1N)c1cc(F)ccc1Cl (single isomer, unassigned) [Configuration 1] | 56.7 | 6.5 |  |  |  |  |  |  |  |  |  |
| CC(Oc1cc(-c2cnn(C3CCOCC3)c2)cnc1N)c1cc(F)ccc1Cl (single isomer, unassigned) [Configuration 2] |  | > 10 | > 100 |  |  |  |  |  |  |  |  |
| C[C@@H](Oc1cc(-c2cnn(C3CCNCC3)c2)cnc1N)c1c(Cl)ccc(F)c1Cl [Crizotinib, reference compound] |  |  |  | 7.3 | 0.47 | 0.842 ± 0.056 |  |  |  |  |  |
| CC(Oc1cc(-c2cncnc2)cnc1N)c1cc(F)ccc1Cl (centres unmarked) [MXY-032-45] |  |  |  |  |  |  | 0.566 ± 0.029 | > 10 | > 10 | > 100 | 3.67 |
| CC(Oc1cc(-c2cnn(C3COC3)c2)cnc1N)c1cc(F)ccc1Cl (centres unmarked) [MXY-032-51] |  |  |  |  |  |  | 0.025 ± 0.001 | 4.67 | 31.2 | 9.91 ± 1.28 | 0.335 |
| CC(Oc1cc(-c2cnn(C3CCOC3)c2)cnc1N)c1cc(F)ccc1Cl (centres unmarked) [MXY-032-53] |  |  |  |  |  |  | 0.027 ± 0.001 | 4.54 | 44.1 | 6.34 ± 1.91 | 1.24 |
| CC(Oc1cc(-c2cccc(N3CCOCC3)c2)cnc1N)c1cc(F)ccc1Cl (centres unmarked) [MXY-032-55] |  |  |  |  |  |  | 0.528 ± 0.008 | 5.99 | 18.6 | 11.6 ± 6.02 | 3.89 |
| CC(Oc1cc(Nc2cc3ccccc3cn2)cnc1N)c1cc(F)ccc1Cl (centres unmarked) [MXY-032-69] |  |  |  |  |  |  | > 5 | 10.7 | > 50 | 25.3 ± 6.24 | > 10 |
| CC(Oc1cc(Nc2ccc3ccccc3n2)cnc1N)c1cc(F)ccc1Cl (centres unmarked) [MXY-032-85] |  |  |  |  |  |  | > 10 | 5.74 | > 50 | 12 ± 2.32 | > 10 |
| CC(Oc1cc(Nc2nccc3ccccc23)cnc1N)c1cc(F)ccc1Cl (centres unmarked) [MXY-032-87] |  |  |  |  |  |  | > 10 | 9.47 | > 50 | 17.4 ± 0.25 | > 10 |
| CCOC(C)n1cc(-c2cnc(N)c(OC(C)c3cc(F)ccc3Cl)c2)cn1 (centres unmarked) [MXY-032-91] |  |  |  |  |  |  | 0.157 ± 0.031 | 4.56 | 6.34 | 2.08 ± 0.803 | 5.28 |
| COCCCn1cc(-c2cnc(N)c(OC(C)c3cc(F)ccc3Cl)c2)cn1 (centres unmarked) [MXY-032-93] |  |  |  |  |  |  | 0.015 ± 0.001 | 3.45 | 2.88 | 1.98 ± 0.84 | 2.33 |
| COCCn1cc(-c2cnc(N)c(OC(C)c3cc(F)ccc3Cl)c2)cn1 (centres unmarked) [MXY-032-95] |  |  |  |  |  |  | 0.011 ± 0.001 | 2.34 | 3.9 | 1.36 ± 0.869 | 2.36 |
| CC(Oc1cc(-c2cn(C)c3ccccc23)cnc1N)c1cc(F)ccc1Cl (centres unmarked) [MXY-89] |  |  |  |  |  |  | 0.695 ± 0.002 | 2.44 | 11 | 6.874 ± 0.022 | 7.89 |
| CC(Oc1cc(-c2cnn3ccccc23)cnc1N)c1cc(F)ccc1Cl (centres unmarked) [MXY-97] |  |  |  |  |  |  | 0.061 ± 0.007 | 1.85 | 4.51 | 3.3 ± 0.05 | 1.23 |
| COc1ncc(F)cc1C(C)Oc1cc(-c2cnn(C3CCNCC3)c2)cnc1N (centres unmarked) [MXY-111] |  |  |  |  |  |  |  | 12.4 | 2.48 | 0.988 ± 0.047 | 0.132 |
